From patent US20030158126A1, “Method of treatment for fungal infections with a synergistic formulation of antifungal agents” (priority 2002, published 2003)
Blank lines part the entries; values can stand above or below the compound they belong to.

Assays:
Candida albicans [1] = experiment: Synergism of menthol, menthyl acetate or their ratios with antifungal drugs (MIC, FIC, fold enhancement); type: cell-based, Candida albicans (MTCC1637 equivalent to ATCC 18804); conditions: for synergism of the individual compound with Clotrimazole, Amphotericin B and Nystatin: individual compound at a concentration of 0.25 μg/ml
Protocol: In the present invention Candida albicans (MTCC1637 equivalent to ATCC 18804)=Interdigital mycoses, Neotype strain, production of citric acid) is used for all the experimentations (MTCC=Microbial type culture collection, Institute of Microbial Technology, Chandigarh, India). […]
The fractional inhibitory concentrations (FIC) are calculated by dividing the MIC of the combination with the MIC of antifungal compound alone. The enhancement is calculated by dividing the MIC of the antifungal compound with the MIC of the combination. […] Similarly, the maximum enhancement of Amphotericin is detected for the same set of ratios (2114, 2115, 2116). The enhancement of Nystatin is detected in the combinations with ratios 2112 and 2114. (TABLE 3)

Candida albicans [2] = experiment: Minimum inhibitory concentration (MIC) in broth culture of Candida albicans; type: cell-based, Candida albicans (MTCC1637 equivalent to ATCC 18804); conditions: for activity of the components at the concentrations used: proportional concentrations within 0.25 μg/ml
Protocol: In the present invention Candida albicans (MTCC1637 equivalent to ATCC 18804)=Interdigital mycoses, Neotype strain, production of citric acid) is used for all the experimentations (MTCC=Microbial type culture collection, Institute of Microbial Technology, Chandigarh, India).
The minimum inhibitory concentrations (MIC) of the compound menthyl acetate and menthol is determined in broth culture of Candida albicans and is estimated to be […] and 500 μg/ml respectively.
A combination of the two compounds menthol and menthyl acetate in 1:1 ratio is evaluated for synergistic action if any. […] Therefore this combination is further tested for activity against Candida in combination with known antifungal drugs.
Following ratios are prepared by dissolving menthol in menthyl acetate. The ratios are tested for minimum inhibitory concentration in broth cultures of Candida albicans. As mentioned in the TABLE 1, the MIC of ratios are several folds lower than the additive MIC of individual compounds. Identification numbers of the ratios are the numbers given to identify the combination and mean nothing more than this. […] All these combinations are found to be synergistic for antifungal activities.

[3] = antifungal drug alone or with menthol/menthyl acetate combination at 0.25 μg/ml

Structure (SMILES): C[C@@H]1[C@H](O)[C@@H](C)/C=C/C=C/CC/C=C/C=C/C=C/C=C/C(O[C@H]2O[C@H](C)[C@@H](O)[C@H](N)[C@@H]2O)CC2O[C@](O)(CC(O)C(O)CCC(O)CC(O)CC(O)CC(=O)O[C@H]1C)CC(O)C2C(=O)O (stereo partly drawn) [Nystatin (N), Nystatin]
MIC (Candida albicans [1]; Nystatin (N) + Menthol (μg/ml)): 5.0 µg/mL
MIC (Candida albicans [1]; Nystatin (N) + Menthyl acetate (μg/ml)): 5.0 µg/mL
MIC (Candida albicans [1]; [3]): 5.0 µg/mL

Structure (SMILES): CC1CCC(C(C)C)C(O)C1 (stereo not drawn) [menthol]
MIC (Candida albicans [2]; broth culture of Candida albicans, read-out: minimum inhibitory concentrations (MIC)): 500 µg/mL
activity of the components at the concentrations used (Candida albicans [2]): do not have any activity
synergism of the individual compound with Clotrimazole, Amphotericin B and Nystatin (Candida albicans [1]): neither menthol nor menthyl acetate could lower the MIC

Structure (SMILES): CC(=O)OC1CC(C)CCC1C(C)C (stereo not drawn) [menthyl acetate]
minimum inhibitory concentrations (MIC) (Candida albicans [2]; broth culture of Candida albicans, printed as a dilution fraction): 1/400
activity of the components at the concentrations used (Candida albicans [2]): do not have any activity
synergism of the individual compound with Clotrimazole, Amphotericin B and Nystatin (Candida albicans [1]): neither menthol nor menthyl acetate could lower the MIC

Further lines, results first:

MIC (Candida albicans [1]; Amphotericin B (A) + Menthyl acetate (μg/ml)): 2.5 µg/mL
MIC (Candida albicans [1]; Candida albicans, Amphotericin B (A) + Menthol (μg/ml), read-out: MIC): 2.5 µg/mL
MIC (Candida albicans [1]; [3]): 2.5 µg/mL
Structure (SMILES): C[C@@H]1[C@H](O)[C@@H](C)/C=C/C=C/C=C/C=C/C=C/C=C/C=C/[C@H](O[C@@H]2O[C@H](C)[C@@H](O)[C@H](N)[C@@H]2O)C[C@@H]2O[C@](O)(C[C@@H](O)C[C@@H](O)[C@H](O)CC[C@@H](O)C[C@@H](O)CC(=O)O[C@H]1C)C[C@H](O)[C@H]2C(=O)O [Amphotericin B (A), Amphotericin B]

MIC (Candida albicans [1]; Candida albicans, Clotrimazole (C) + Menthyl acetate (μg/ml), read-out: MIC): 1.25 µg/mL
MIC (Candida albicans [1]; Clotrimazole (C) + Menthol (μg/ml)): 1.25 μ/ml
MIC (Candida albicans [1]; [3]): 1.25 µg/mL
Structure (SMILES): Clc1ccccc1C(c1ccccc1)(c1ccccc1)n1ccnc1 [Clotrimazole (C), Clotrimazole]
